As usually defined, the MIC is the lowest concentration that inhibits growth of the organism. As a reminder, the TGI is the concentration at which net growth stops. The GI50 is the concentration at which growth is held to half of that of the control. Higher therefore signals less potent growth inhibition.

The text below walks through data of article PMC10097024, “Cytotoxic and Antibacterial Prenylated Acylphloroglucinols from Hypericum olympicum L” (Plants, 2023).

In brackets after ≈: the same amount, converted by molar mass. Several values for one entry are separate records, joined by “and”; a condition that tells them apart may be missing. Identical values can stand only once. Like-named read-outs stand apart in the source and are kept apart here.

One assay has as its system K-562 cells. As to conditions: K-562; cited from earlier work.
Another assay has as its system MDA-MB-231 cells. As to conditions: cited from earlier work.
The subject of assay [1] is Corynebacterium diphtherie. As to conditions: cited from earlier work.
Another assay relates to Sarcina lutea. Particulars: cited from earlier work.
Assay [2] concerns prostate cancer cell PC-3. Particulars: cited from earlier work.
A further assay relates to MRSA. Particulars: cited from earlier work.
For a further assay, the system named is S. aureus. As to conditions: cited from earlier work.
In another assay the test system is leukemia U937 cells. Particulars: lowest IC50 value; cited from earlier work.
A further assay deals with E. faecalis. As to conditions: cited from earlier work.
Assay [3] deals with Gram-negative bacteria, such as E. coli and fungi. As to conditions: cited from earlier work.
For assay [4], the system named is HL-60. The assay can be described thus: Antiproliferative test (NCI methodology). Format: cell-based, human. From the text: (§1) The group of human cell lines used in this study were represented by the tumor cell lines MDA-MB (breast carcinoma), EJ (urinary bladder carcinoma), K-562 (chronic myeloid leukemia), HL-60 (acute pre-myeloid leukemia), HL-60/DOX (multi-drug resistant HL-60 cell line, with over expression of MRP-1) and the non-tumorigenic cell lines HEK-293 (embryonic kidney cells) and EA.hy926 (vascular endothelial cells). EJ, HL60 and EA.hy926 were purchased from American Type Culture Collection (ATCC) (Manassas, Virginia). The other cell lines were purchased from the German Collection of Microorganisms and Cell Cultures (DSMZ GmbH, Braunschweig, Germany). HL-60/DOX cell lines were generated by periodically treating HL-60 cells with anthracyclins. The conditions in which the cell culture flasks were maintained were as follows: 37 °C in an incubator “BB 16-Function Line” Heraeus (Kendro, Hanau, Germany) with 5% CO2 humidified atmosphere. The growth medium was 90% RPMI-1640, supplemented with 10% FBS and 2 mM L-glutamine. MDA-MB-231, EJ, HEK-293 and EA.hy926 cells were maintained as adherent monolayer cultures while all the other (leukemic) cell lines were grown as suspension type cultures. Cells were maintained in log phase: the adherent cell lines were subjected to trypsinization 1–2 times a week and the leukemic cell lines were passaged 2–3 times a week by removing of part of the cellular suspension and substituting it with fresh medium.
(§2) The test was performed according the methodology of National Cancer Institute (NCI), USA [116]. Briefly, cells were seeded into 96-well plates in the same way as for an MTT test and after 24 h, the absorption of one plate of each cell line was measured as in the MTT assay described above, to represent a measurement of the cell population at the time of drug-addition (Tz). The rest of the plates were treated with the tested compounds and the experiment for them continued as the MTT-method. Using the absorbance measurements [(Tz, untreated control growth (C) and test growth in the present of the compounds (Ti)], the percentage growth is calculated at each of the tested concentrations of the compounds. Percentage growth inhibition (GI) is calculated as GI%=Ti−Tz/C−Tz×100 for concentrations for which Ti ≥ Tz. For concentrations in which Ti < Tz it is calculated as GI%=Ti−Tz/Tz×100 . Two dose parameters are calculated for each experimental agent. Growth inhibition of 50% (GI50) is calculated from Ti−Tz/C−Tz×100=50 . This is the drug concentration resulting in a 50% reduction in the net protein increase (as measured by MTT-test) in control cells during the drug incubation. The drug concentration resulting in total growth inhibition (TGI) is calculated from Ti = Tz.

The test system of assay [5] is MDA-MB-231. The assay can be described thus: Antiproliferative test (NCI methodology). Format: cell-based, human.
Description: as §1, §2

The test system of assay [6] is K-562. As to the kind of experiment: Antiproliferative test (NCI methodology). It counts as cell-based, human.
Description: as §1, §2

The test system of assay [7] is HL-60. The assay can be described thus: MTT cytotoxicity test. It counts as cell-based, human. As to conditions: Homo sapiens, HL-60, 72 h exposure.
Description: as §1
(§3) The evaluation of cytotoxic activity was conducted by MTT test as described previously. The median inhibitory concentration (IC50) values which represent the half-maximal concentration values were calculated from sigmoidal concentration–response curves, using non-linear regression analysis (Curve fit, GraphPad Prizm 5.0 software, GraphPad Software Inc., San Diego, CA, USA). The selectivity index was calculated as the ratio of the IC50 of a non-cancerous line (HEK-293 or EA.hy926) and the average IC50 of all chemosensitive tested tumor cell lines (x). Therefore, SI=IC50HEK-293/IC50x . The resistance index (RI) was calculated as the ratio of IC50 of the multi-drug resistant HL-60/DOX cell line and the IC50 of its parent cell line: RI=IC50HL-60/DOX/IC50HL-60 .

Another assay deals with HEK-293. As to the kind of experiment: MTT cytotoxicity test. Format: cell-based, human. As to conditions: Homo sapiens, HEK293, HEK-293, 72 h exposure.
Description: as §1, §3
(In general: Tetrazolium dyes change colour on reduction, which living cells bring about.)

The subject of assay [8] is MDA-MB-231. The assay can be described thus: MTT cytotoxicity test. It counts as cell-based, human. Particulars: Homo sapiens, MDA-MB-231, 72 h exposure.
Description: as §1, §3

The test system of another assay is EA.hy926. The assay can be described thus: MTT cytotoxicity test. It counts as cell-based, human. Particulars: Homo sapiens, EA.hy 926, EA.hy926, 72 h exposure.
Description: as §1, §3

Another assay deals with EJ. As to the kind of experiment: MTT cytotoxicity test. It counts as cell-based, human. Particulars: Homo sapiens, 72 h exposure.
Description: as §1, §3

A further assay deals with HL-60/DOX. As to the kind of experiment: MTT cytotoxicity test. As to conditions: Homo sapiens, 72 h exposure. Format: cell-based, human.
Description: as §1, §3

Assay [9] deals with K-562. The assay can be described thus: MTT cytotoxicity test. Format: cell-based, human. As to conditions: Homo sapiens, K562, K-562, 72 h exposure.
Description: as §1, §3

In assay [10] the test system is NorA multidrug efflux pumps. More on the design: method as in PMID 24119569. As to conditions: S. aureus; cited from earlier work.
For assay [11], the system named is human tumor (MDA-MB-231, EJ, K-562, HL-60 and HL-60/DOX) cell lines. The assay can be described thus: MTT cytotoxicity test, tumor cell line panel. As to conditions: Homo sapiens; average IC50 of all chemo-sensitive tested tumor cell lines; read-out: x. It counts as cell-based.
Description: as §1, §3

The next assay concerns Bcl-2. The assay can be described thus: Western blot, Bcl-2. Particulars: MDA-MB-231 and HL60/DOX. Format: cell-based, human. As for the experimental part:
Next, the samples were lysed on ice with a buffer containing 100 mM Tris–HCl at pH 8.0, 4% SDS, 20% glycerol, 1% Na3VO4, 200 mM dithiothreitol (DTT) (Sigma-Aldrich, St. Louis, MO, USA) and protease inhibitor (Roche, Basel, Switzerland). Then the cell lysate was boiled for 15 min and centrifuged at 13,000 rpm for 10 min at 4 °C. Before DTT addition, aliquot samples of 10 μL were taken from the lysates. Their protein concentrations were determined using a BCA protein assay kit (ThermoFisher Scientific, Waltham, MA, USA) after dilution 5× with H2O. Subsequently, the samples were subjected to denaturing SDS-PAGE electrophoresis and then transferred to PVDF membrane (Santa Cruz Biotechnology, USA). After this, the blots were fixed with blocking solution (5% w/v nonfat dried milk powder, dissolved in TBS) and incubated with specific primary antibodies: mouse procaspase-9 (sc-17784), mouse Bcl-2 (C-2, sc-7382) and mouse β-actin (sc-8432). The incubation was either overnight at 4 °C or for 150 min at room temperature. After washing, the membranes were incubated for 45 min with horseradish peroxidase conjugated secondary goat anti-mouse antibody (sc-2005) or mouse IgG kappa antibody (sc-516102) (Santa Cruz Biotechnology, Santa Cruz, CA, USA). […] This densitometry analysis of the blots was calculated by Quantity One software version 4.6.9 (Bio-Rad Laboratories, Hercules, CA, USA). […]
In general terms: A western blot detects proteins with antibodies after separation by electrophoresis.

`CC(C)=CCC[C@]1(C)[C@@H](CC=C(C)C)C[C@@]2(CC=C(C)C)C(=O)[C@]1(C(=O)C(C)C)C(=O)C(CC=C(C)C)=C2O` [hyperforin]: the IC50 in the assay on K-562 cells was 21 µM; with MDA-MB-231 cells, 12 µM; in [2], 37 µM; in the assay on leukemia U937 cells it was 1800 nM. Besides, the MIC in assay [1] is 0.1 mg/L and 0.19 μM; in the assay on Sarcina lutea it was 0.1 mg/L and 0.19 μM; in the assay with MRSA (MRSA) it was 1 mg/L (≈ 1.86 µM); in the assay on S. aureus it was 0.1 mg/L and 0.19 μM; in the assay with S. aureus (listed as Hyperforin) it was 50 mg/L (≈ 93.1 µM); in the assay with E. faecalis, 1 mg/L (≈ 1.86 µM). Also, in assay [3], the MIC was 400 mg/L (≈ 745 µM).
On to `CC[C@H](C)C(=O)c1c(O)cc(O)cc1OC/C=C(\C)CCC=C(C)C` [Compound 2, olympicin A], for which the TGI in the assay with HL-60 [4] (HL-60, total growth inhibition) came to 81.63 µM; with MDA-MB-231 [5] (MDA-MB-231, total growth inhibition) it was 2.54 µM; in the assay with K-562 [6] (K-562, total growth inhibition), 23.49 µM. For the same compound, the GI50 with HL-60 [4] (Homo sapiens, HL-60, MTT readout) turned out to be 72.6 µM; with MDA-MB-231 [5] (Homo sapiens, MDA-MB-231, MTT readout), 1070 nM; with K-562 [6] (Homo sapiens, K562, K-562, MTT readout) it was 20.3 µM. The IC50 was 13.8 ± 1.8 µM with HL-60 [7]; 22.5 ± 3.8 µM in the assay on HEK-293; 2950 ± 400 nM in the assay on MDA-MB-231 [8]; 34 ± 6.5 µM with EA.hy926; 5.61 ± 0.5 µM with EJ; 1960 ± 200 nM in the assay with HL-60/DOX. For the same compound, the IC50 with K-562 [9] was 22.9 ± 4 µM; in assay [11], 11.3 µM; with MRSA (growth of MRSA), 1.80 mg/L (≈ 5.2 µM). Also, the “inhibition of efflux from NorA multidrug efflux pumps” value in assay [10] is “inhibited the efflux”. Besides, in the assay on Bcl-2, the “degradation of the antiapoptotic protein Bcl-2 (in words)” value is listed as “degradation”.
